Assay results published in patent US12544392B2, “Treatment of adenovirus infection or disease associated with adenovirus infection” (SymBio Pharmaceuticals Limited, priority 2023, dated 2026).

Key:
[1] = PK of BCV in plasma with or without concomitant cyclosporine; type: in vivo, human; details: for increase of AUCinf of BCV in plasma compared with BCV alone / increase of Cmax of BCV in plasma compared with BCV alone: healthy subjects
Text: (§1) Subjects 101-12 of cohort 2, and 101-15, 101-18 and 110-06 of cohort 3 took cyclosporine, an immunosuppressive drug, during the treatment period (duration of treatment) of intravenous BCV. Prior PK studies in healthy subjects have shown a significant increase in plasma BCV exposure with concomitant intravenous infusion of BCV and cyclosporine. […] In view of the above, for the above patients taking cyclosporine, any of the doses indicated in 1.1.3 (cohorts 1-3) above is reduced to 60% for administration. Note that when cyclosporine is administered as BID (twice daily) oral or injectable form, the administration is conducted with an interval of 2 hours after the completion of intravenous BCV. In the case of continuous infusion of cyclosporine for 24 hours, no interval is needed.
as §1, with “Prior” for “Subjects 101-12 of cohort 2, and 101-15, 101-18 and 110-06 of cohort 3 took cyclosporine, an immunosuppressive drug, during the treatment period (duration of treatment) of intravenous BCV. Prior”, “4.1.3” for “1.1.3”, “4-6)” for “1-3)”

[2] = Analysis of lymphocytes: absolute lymphocyte count of a patient in cohort 3; type: in vivo, human; details: patient 110-05 in cohort 3 (0.4 mg/kg IV twice weekly)
Text: In the clinical study of Example 1, the absolute lymphocyte count in the plasma of the patient 110-05 in cohort 3 was examined.

[3] = system: adenovirus (AdV); experiment: Human clinical study on treatment of AdV infectious disease: viral load of AdV in plasma by real-time qPCR; type: in vivo; details: for time for the levels of viral load to reach below the LOD: overall
Experimental: A human clinical study on the treatment of adenovirus (AdV) infectious disease was conducted according to the following procedure.
Patients aged 2 months or older who have asymptomatic AdV infection or AdV disease, have an underlying immunocompromised state, and have AdV viremia at a high level, including hematopoietic stem cell transplant recipients before the immune reconstitution by the graft cells is achieved, organ transplant recipients on medication with an immunosuppressant, and patients with immunodeficiency syndrome (patients with 10,000 or more copies/ml in a sample, or patients with 1,000 or more copies/ml in two samples while the second viral load is greater than the first viral load).
The brincidofovir (BCV) infusion is a sterile aqueous solution containing 10 mg/mL BCV.
• Product name: Brincidofovir (BCV) • Dosage form: Solution for infusion • Unit dose: 10 mg/mL (1 mL per vial) • Route of administration: Intravenous (IV) infusion • Physical description: Clear, colorless solution in a sterile glass vial • Storage: Refrigerated (2-8° C.) • Dosing: Continuous IV drip infusion administered over a period of 2 hours twice weekly (on Days 1 and 4) 1.1.3 Dose • Cohort 1:0.2 mg/kg (if body weight≥50 kg, 10 mg/dose), twice weekly • Cohort 2:0.3 mg/kg (if body weight≥50 kg, 15 mg/dose), twice weekly • Cohort 3:0.4 mg/kg (if body weight≥50 kg, 20 mg/dose), twice weekly 1.1.4 Drug Administration
The dose of BCV 10 mg/mL solution for infusion is prepared based on the patient's body weight.
Preparation: Using a sterile syringe and needle, transfer 1 mL of IV BCV solution from one vial into a 100-mL glucose 5% IV bag to make a diluted dosing solution. For more than 10 mg/dose, prepare one additional diluted dosing solution in the same procedure mentioned above. Gently invert the bag at least 5 times to mix. Note: No vigorous shaking of the solution in a vial or the diluted dosing solution in a bag.
Administer the appropriate volume of diluted dosing solution based on the patient's body weight. Each dose is administered intravenously at a constant rate over 2 hours. Upon completion of the administration, the IV line is flushed with glucose 5% or dextrose 5% to ensure the IV line has been cleared of all active drug. If required per institutional practice, the flush of glucose 5% or dextrose 5% may be followed by a flush with normal saline. Diluted dosing solution should be prepared at the time of use in principle and should not be prepared the day before.
as §1
The study duration is at least 9 weeks, based on a screening period of 1 week, a treatment period of at least 4 weeks, and post-treatment follow-up period of 30 days. In the screening, after informed consent has been obtained from the patients, a screening evaluation is conducted to determine eligibility for the study. On the first day of the first week of the treatment period, patients are assigned a dose based on the applicable cohort (see the section 1.1.3 Cohorts 1-3 above). The duration of treatment is a minimum of 4 weeks and a maximum of 14 weeks, and termination is based on the treatment stopping criteria as described below. […]

[4] = BCV IV and cyclosporine administered simultaneously
[5] = cyclosporine administered at 2 hours after the end of intravenous BCV infusion over 2 hours
[6] = cohort 1: 0.2 mg/kg IV twice weekly
[7] = cohort 3: 0.4 mg/kg IV twice weekly, of 10 cases

Question: For `CCCCCCCCCCCCCCCCOCCCOP(=O)(O)CO[C@H](CO)Cn1ccc(N)nc1=O` [BCV, [(2S)-1-(4-amino-2-oxopyrimidin-1-yl)-3-hydroxypropan-2-yl]oxymethyl-(3-hexadecoxypropoxy)phosphinic acid], which “AUCinf and Cmax of BCV in plasma, cohort 3 patients versus healthy controls” value ([1]; BCV administered alone) is on record?
Answer: Its value is “substantially the same”.

Question: What about the “increase of AUCinf of BCV in plasma compared with BCV alone” value [1, 4] of the same compound?
Answer: Its value is “approximately 3.4 fold”.

Question: What about the “increase of Cmax of BCV in plasma compared with BCV alone” value [1, 4] of the same compound?
Answer: Its value is roughly 2.3 fold.

Question: What about the “increase of AUCinf of BCV in plasma compared with BCV alone” value [1, 5] of the same compound?
Answer: Its value is “approximately 1.8 fold”.

Question: And the “increase of Cmax of BCV in plasma compared with BCV alone” value [1, 5]?
Answer: The value was roughly 1.3 fold.

Question: And the “effect of cyclosporine administration on the blood concentration of BCV” value ([1]; statement in the embodiments, no test described)?
Answer: Its value is “does not affect”.

Question: What about the “number of lymphocytes (absolute lymphocyte count)” value [2] of the same compound?
Answer: The value was “tended to increase”.

Question: What about the “patients in whom the levels of viral load of AdV reached below the LOD” value ([3]; cohort 1: 0.2 mg/kg (10 mg/dose if body weight ≥50 kg) IV twice weekly, plasma, LOD 25 copies/ml) of the same compound?
Answer: Its value is “two”.

Question: And the “cases with relapse among those that reached below the LOD” value [3, 6]?
Answer: The value was “One”.

Question: And the patients who died [3, 6]?
Answer: Its patients who died is “one”.

Question: And the “patients in whom the levels of viral load of AdV reached below the LOD” value ([3]; cohort 2: 0.3 mg/kg (15 mg/dose if body weight ≥50 kg) IV twice weekly, plasma, LOD 25 copies/ml)?
Answer: Its value is 5 patients.

Question: What about the patients who died ([3]; cohort 2: 0.3 mg/kg IV twice weekly) of the same compound?
Answer: The patients who died was “one”.

Question: What about the “time for the levels of viral load to reach below the LOD” value ([3]; cohort 2: 0.3 mg/kg IV twice weekly, the 5 cases) of the same compound?
Answer: Its value is “longer time”.

Question: What about the “cases in which the levels of viral load of AdV reached below the LOD” value ([3]; cohort 3: 0.4 mg/kg (20 mg/dose if body weight ≥50 kg) IV twice weekly, plasma, LOD 25 copies/ml, all cases) of the same compound?
Answer: The value was 10 cases.

Question: What about the relapse or death ([3]; cohort 3: 0.4 mg/kg IV twice weekly) of the same compound?
Answer: Its relapse or death is “No patient relapsed or died”.

Question: And the “patients whose levels of viral load reached below the LOD within 4 weeks” value [3, 7]?
Answer: Its value is 8 patients.

Question: And the “remaining patients whose levels of viral load reached below the LOD at Week 5 and 6” value [3, 7]?
Answer: The value was 2 patients.

Question: And the “time for the levels of viral load to reach below the LOD” value ([3]; cohort 3: 0.4 mg/kg IV twice weekly, the 10 cases)?
Answer: The value was “shorter time”.

Question: And the “time at which the viral load of AdV was reduced to a level below the LOD” value ([3]; patient 110-05 in cohort 3 (0.4 mg/kg IV twice weekly))?
Answer: Its value is 3 Week.
